Results published in patent US20170216360A1, “METHODS AND COMPOSITIONS FOR IMPROVING HOMING OF CELLS INCLUDING MESENCHYMAL STEM CELLS” (SANOFI, priority 2014, published 2017).
“Also recorded” adds a separate entry of the source. Structures can show the parent of a compound that is named as a salt.

Legend:
[1] = test system: LPS-induced inflamed mouse ear; experiment: In vivo MSC homing to LPS-induced inflamed ear after systemic infusion, intravital microscopy; design: key to In vivo functional assay (homing): NA = negative activity result; A = positive activity result; conditions: for Increase of MSC homing to inflamed ear (%): relative to untreated cells; for MSC homing to the inflamed ear in vivo, result in words: vs vehicle-treated control
Method: C57BL/6 mice (Charles River Laboratories, Wilmington, Mass.) were anesthetized with ketamine/xylazine and their ears shaved 24 h prior to cell infusion. To induce an inflammatory response, 30 μg of E. coli lipopolysaccharide (LPS, Sigma, St. Louis, Mo.) in 50 μL saline was injected into the pinna of the left ear, with 50 μL 0.9% saline injected into the right ear as a control. For in vivo dye sensitivity validation, 1×10e6 cells of each stain were suspended in 150 μL PBS (pH 7.4) and injected by retro-orbital vein infusion.
To evaluate the minimum number of cells needed for a reproducible response, each mouse (n=4) received a range of cell doses (10,000, 50,000, 100,000, or 500,000) each of cells stained with Dil or DiD with a dye switch (i.e., dyes used for experimental and control cells were alternated to prevent bias based on the dyes that were used). To evaluate the impact of small molecule hit pre-treatment on MSC homing to the inflamed ear, MSCs were incubated with 3 μM of the small molecule hit or 0.1% DMSO as a control for 24 h before staining and in vivo administration. To highlight the vasculature, 50 μL of 10 mg/mL FITC-dextran ([…]; Sigma, St. Louis, Mo.) was injected retro-orbitally prior to imaging.
In vitro staining and in vivo homing of stained MSCs to the skin was imaged noninvasively in real time using a custom-built video-rate laser-scanning confocal microscope designed specifically for live animal imaging. For in vivo imaging, the mouse ear was positioned under a coverslip with methylcellulose gel and images acquired at 30 frames per second at a depth up to 200 μm using a 60×1.0NA water immersion objective lens (Olympus, Center Valley, Pa.). DiO labeled MSCs were excited with a 491 nm continuous wave (CW) laser (Cobalt, Stockholm, Sweden), and detected through a 520±20 nm bandpass filter (Semrock, Inc., Rochester, N.Y.). Dil labeled MSCs were excited with a 561 nm CW laser (Coherent, Inc., Santa Clara, Calif.) and detected through a 593 nm±40 nm filter (Omega Optical, Brattleboro, Vt.). DiD labeled MSCs were excited with a 635 nm CW laser (Coherent, Inc., Santa Clara, Calif.) and detected through a 695 nm±27.5 nm band pass filter (Omega Optical, Brattleboro, Vt.). DiR labeled MSCs were excited using a femtosecond Ti:Sapphire Maitai source for single photon excitation at 750 nm (Spectra Physics, Santa Clara, Calif.) and collected through a 785 nm±31 nm band pass filter (Omega Optical, Brattleboro, Vt.).
For quantification, the average number of cells in 20 representative imaging locations across the inflamed region was counted in each mouse. Cells were defined as having a diameter from 10-30 μm to eliminate debris and clumps from analysis, and a primary channel intensity greater than 2 to eliminate autofluorescent events. The average relative detection sensitivity (ratio of Dil/DiD counts) determined in the overall dye efficiency experiments were used to scale the counts for DiD stained cells. […] For multiple comparisons, Tukey's HSD test was used. Error bars in graphs represent standard error, and statistical significance is denoted by * p<0.05.

[2] = test system: human mesenchymal stromal cells (MSCs); experiment: Cell viability assay, IncuCyte FLR with Yoyo-1 dye (membrane integrity); assay type: cell-based; conditions: 24 hours pretreatment
Method: Cell viability experiments were performed using the IncuCyte FLR (Essen Bioscience). Cells were stained with a cell impermeant cyanine dimer nucleic acid stain (Yoyo-1, Life Technologies). This fluorescent dye was used to measure cell membrane integrity. Pre-confluent human mesenchymal stromal cells (MSCs) were incubated for 24 hours with both the indicated small molecules […]. To kinetically measure MSC membrane integrity, images were acquired every two hours using an IncuCyte FLR live-cell image imaging system.

[3] = MSCs pretreated 3 μM 24 h, 24 h after infusion

SMILES	MSC homing to skin in the inflamed ear, average cells [1, 3]	Increase of MSC homing to inflamed ear (%) [1]	MSC homing to the inflamed ear in vivo, result in words [1]	MSC viability [2]	Increase of MSC homing to inflamed ear compared to vehicle-treated MSCs [1, 3]	Increased homing versus vehicle-treated MSCs, without CD11a blocking ([1]; inflamed ear)	Increased homing versus vehicle-treated MSCs, CD11a blocked prior to infusion ([1]; inflamed ear, anti-human CD11a clone TS1/22)	Increase of MSC homing to inflamed ear (%) ([1]; hydrochloride)	In vivo functional assay (homing) ([1]; systemic administration of pretreated huMSCs)
CCc1c2c(nc3ccc(OC(=O)N4CCC(N5CCCCC5)CC4)cc13)-c1cc3c(c(=O)n1C2)COC(=O)[C@]3(O)CC [Compound 1927, reference compound]	47.2±20.4 cells/cm^2	0%	no impact; also recorded: did not affect MSC homing	did not modify MSC viability	–	–	–	–	–
Cn1cc(C2=C(c3c4n(c5ccccc35)CCC(CN)C4)C(=O)NC2=O)c2ccccc21 (stereo not drawn) [Compound 1929, 3-(8-aminomethyl-6,7,8,9-tetrahydro-pyrido[1,2-a]indol-10-yl)-4-(1-methyl-1H-indol-3-yl)-pyrrole-2,5-dione hydrochloride]	78.5±15.9 cells/cm^2	–	significantly promoted MSC homing	did not modify MSC viability	69.3±11.3%	70%	less than 10%	73%	A
